Data: patent US11331369B2, “Endoparasitic depsipeptides” (Zoetis Services LLC, priority 2017, dated 2022)
Where two headings read alike, the source gives them in different places.

Tests used:
[1] = tested on: microfilariae of Dirofilaria immitis; assay: Dirofilaria immitis, Microfilaria (DiMF) In vitro Assay; type: cell-based; details: 72 h, read-out: DiMF Minimum Effective Dose (MED), approximately 72 hours incubation, microfilariae assessed for survival or paralysis
[2] = tested on: circulating microfilariae (Dirofilaria immitis); assay: Heartworm Positive Dog Studies (effects on circulating microfilariae, clinical observations); details: for Mean MF/mL, Day 0 Pre-dose / Mean MF/mL, Day 0 Post-dose, 2 hours / Mean MF/mL, Day 1 / Mean MF/mL, Day 7 / Mean MF/mL, Day 14 / Mean MF/mL, Day 21: blood, 3 dogs/treatment; for Mean MF/mL, Day 0 Pre-dose: baseline before oral dose; for Mean MF/mL, Day 0 Post-dose, 2 hours / Mean MF/mL, Day 1 / Mean MF/mL, Day 7 / Mean MF/mL, Day 14 / Mean MF/mL, Day 21: oral dose (emodepside and 1b-14 1 mg/kg, 1b-25 up to 3 mg/kg); for Mean MF/mL, Day 0 Post-dose, 2 hours / % Reduction of circulating microfilariae, Day 0 Post-dose, 2 hours: 2 hours post-dose; for % Reduction of circulating microfilariae, Day 0 Post-dose, 2 hours / % Reduction of circulating microfilariae, Day 1 / % Reduction of circulating microfilariae, Day 7 / % Reduction of circulating microfilariae, Day 14 / % Reduction of circulating microfilariae, Day 21: vs pre-dose (Day 0) counts, oral dose
[3] = Canine pharmacokinetic (PK) study, single IV or oral dose; details: dog; for Vd / clearance / half-life / Cmax: in vivo; for Vd / clearance / half-life: iv, 0.2 mg/kg; for Cmax: po, 1 mg/kg; for F: oral 1 mg/kg
[4] = tested on: third stage larvae of Haemonchus contortus; assay: Haemonchus contortus L3 (HcL3) Assay; type: cell-based; details: 96 h, read-out: HcL3 Minimum Effective Dose (MED)
[5] = tested on: 4th stage larvae (L4) of Dirofilaria immitis; assay: Dirofilaria immitis, L4 Stage (DiL4) In Vitro Assay; type: cell-based; details: for minimal effective concentration: Dirofilaria immitis, 72 h, read-out: DiL4 Minimum Effective Dose (MED), approximately 72 hours incubation, L4 larvae assessed for survival or paralysis
[6] = tested on: circulating microfilariae (Dirofilaria immitis); details: dog, in vivo, po, 1 mg/kg

CC(C)C[C@H]1C(=O)O[C@H](Cc2ccc(Cn3nc(C4CC4)cc3C3CC3)cc2)C(=O)N(C)[C@@H](CC(C)C)C(=O)O[C@H](C)C(=O)N(C)[C@@H](CC(C)C)C(=O)O[C@H](Cc2ccc(Cn3nc(C4CC4)cc3C3CC3)cc2)C(=O)N(C)[C@@H](CC(C)C)C(=O)O[C@H](C)C(=O)N1C [Example 1b-14, (3S,6R,9S,12R,15S,18R,21S,24R)-6,18-bis({4-[(3,5-dicyclopropyl-1H-pyrazol-1-yl)methyl]phenyl}methyl)-4,10,12,16,22,24-hexamethyl-3,9,15,21-tetrakis(2-methylpropyl)-1,7,13,19-tetraoxa-4,10,16,22-tetraazacyclotetracosan-2,5,8,11,14,17,20,23-octaone]
minimal effective concentration [1]: 0.3 µM
Mean MF/mL, Day 0 Pre-dose ([2]; heartworm positive dogs): 15,000 MF/mL
Mean MF/mL, Day 0 Post-dose, 2 hours ([2]; heartworm positive dogs): 20,000 MF/mL
Mean MF/mL, Day 1 ([2]; heartworm positive dogs): 14,000 MF/mL
Mean MF/mL, Day 7 ([2]; heartworm positive dogs): 15,000 MF/mL
Mean MF/mL, Day 14 ([2]; heartworm positive dogs): 33,000 MF/mL
Mean MF/mL, Day 21 ([2]; heartworm positive dogs): 28,000 MF/mL
adverse effects / clinical observations ([2]; heartworm positive dogs, 1 mg/kg (po)): no adverse clinical observations noted
average MF counts on day 21 ([2]; heartworm positive dogs, 1 mg/kg (po), 15,000 MF/mL of blood pre-dose): 28,000 MF/mL of blood
effects on circulating MF counts ([2]; heartworm positive dogs, 1 mg/kg (po), throughout the dog study): no significant effects on circulating MF counts
% Reduction of circulating microfilariae, Day 0 Post-dose, 2 hours [2]: −33%
% Reduction of circulating microfilariae, Day 1 [2]: 7%
% Reduction of circulating microfilariae, Day 7 [2]: 0%
% Reduction of circulating microfilariae, Day 14 [2]: −120%
% Reduction of circulating microfilariae, Day 21 [2]: −87%
Vd [3]: 2.7 L/kg
clearance [3]: 0.9 mL/min/kg
half-life [3]: 138 h
Cmax [3]: 111 ng/mL
F [3]: 10%

CC(C)C[C@H]1C(=O)O[C@H](Cc2ccc(Cn3cc(OC(C)C)cn3)cc2)C(=O)N(C)[C@@H](CC(C)C)C(=O)O[C@H](C)C(=O)N(C)[C@@H](CC(C)C)C(=O)O[C@H](Cc2ccc(Cn3cc(OC(C)C)cn3)cc2)C(=O)N(C)[C@@H](CC(C)C)C(=O)O[C@H](C)C(=O)N1C [Example 1b-19, (3S,6R,9S,12R,15S,18R,21S,24R)-3,9,15,21-tetraisobutyl-6,18-bis[[4-[(4-isopropoxypyrazol-1-yl)methyl]phenyl]methyl]-4,10,12,16,22,24-hexamethyl-1,7,13,19-tetraoxa-4,10,16,22-tetrazacyclotetracosane-2,5,8,11,14,17,20,23-octaone]
minimal effective concentration [1]: 0.001 to 0.01 µM
minimal effective concentration [4]: 1 to 10 µM
Vd [3]: 7.25 L/kg
clearance [3]: 2.4 mL/min/kg
half-life [3]: 87 h
Cmax [3]: 267 ng/mL
F [3]: 24%
minimal effective concentration [5]: 0.001 to 0.01 µM

CCOc1cnn(Cc2ccc(C[C@H]3OC(=O)[C@H](CC(C)C)N(C)C(=O)[C@@H](C)OC(=O)[C@H](CC(C)C)N(C)C(=O)[C@@H](Cc4ccc(Cn5cc(OCC)cn5)cc4)OC(=O)[C@H](CC(C)C)N(C)C(=O)[C@@H](C)OC(=O)[C@H](CC(C)C)N(C)C3=O)cc2)c1 [Example 1b-21, (3S,6R,9S,12R,15S,18R,21S,24R)-6,18-bis[[4-[(4-ethoxypyrazol-1-yl)methyl]phenyl]methyl]-3,9,15,21-tetraisobutyl-4,10,12,16,22,24-hexamethyl-1,7,13,19-tetraoxa-4,10,16,22-tetrazacyclotetracosane-2,5,8,11,14,17,20,23-octaone]
minimal effective concentration [1]: 0.001 to 0.01 µM
minimal effective concentration [4]: 1 to 10 µM
Vd [3]: 28.4 L/kg
clearance [3]: 15.5 mL/min/kg
half-life [3]: 36.1 h
Cmax [3]: 145 ng/mL
F [3]: 78%
minimal effective concentration [5]: 0.0001 to 0.001 µM

CC(C)C[C@H]1C(=O)O[C@H](Cc2ccc(Cn3cccn3)cc2)C(=O)N(C)[C@@H](CC(C)C)C(=O)O[C@H](C)C(=O)N(C)[C@@H](CC(C)C)C(=O)O[C@H](Cc2ccc(Cn3cccn3)cc2)C(=O)N(C)[C@@H](CC(C)C)C(=O)O[C@H](C)C(=O)N1C [Example 1b-23, (3S,6R,9S,12R,15S,18R,21S,24R)-3,9,15,21-tetraisobutyl-4,6,10,16,18,22-hexamethyl-12,24-bis[[4-(pyrazol-1-ylmethyl)phenyl]methyl]-1,7,13,19-tetraoxa-4,10,16,22-tetrazacyclotetracosane-2,5,8,11,14,17,20,23-octaone]
minimal effective concentration [4]: ≤ 1 µM
Vd [3]: 8.54 L/kg
clearance [3]: 14 mL/min/kg
half-life [3]: 27 h
Cmax [3]: 205 ng/mL
F [3]: 34%
minimal effective concentration [5]: 0.0001 to 0.001 µM

CC(C)C[C@H]1C(=O)O[C@H](Cc2ccc(Cn3cc(Br)cn3)cc2)C(=O)N(C)[C@@H](CC(C)C)C(=O)O[C@H](C)C(=O)N(C)[C@@H](CC(C)C)C(=O)O[C@H](Cc2ccc(Cn3cc(Br)cn3)cc2)C(=O)N(C)[C@@H](CC(C)C)C(=O)O[C@H](C)C(=O)N1C [Example 1b-25, (3S,6R,9S,12R,15S,18R,21S,24R)-6,18-bis[[4-[(4-bromopyrazol-1-yl)methyl]phenyl]methyl]-3,9,15,21-tetraisobutyl-4,10,12,16,22,24-hexamethyl-1,7,13,19-tetraoxa-4,10,16,22-tetrazacyclotetracosane-2,5,8,11,14,17,20,23-octaone]
Mean MF/mL, Day 0 Pre-dose ([2]; heartworm positive dogs): 32,000 MF/mL
Mean MF/mL, Day 0 Post-dose, 2 hours ([2]; heartworm positive dogs): 34,000 MF/mL
Mean MF/mL, Day 1 ([2]; heartworm positive dogs): 26,000 MF/mL
Mean MF/mL, Day 7 ([2]; heartworm positive dogs): 27,000 MF/mL
Mean MF/mL, Day 14 ([2]; heartworm positive dogs): 40,000 MF/mL
Mean MF/mL, Day 21 ([2]; heartworm positive dogs): 46,000 MF/mL
adverse effects / clinical observations ([2]; heartworm positive dogs, dosed up to 3 mg/kg (po)): no adverse effects observed
effects on circulating MF counts ([2]; heartworm positive dogs, dosed up to 3 mg/kg (po), out to day 21 post-dose): no significant effects on circulating MF counts
% Reduction of circulating microfilariae, Day 0 Post-dose, 2 hours [2]: −6%
% Reduction of circulating microfilariae, Day 1 [2]: 19%
% Reduction of circulating microfilariae, Day 7 [2]: 16%
% Reduction of circulating microfilariae, Day 14 [2]: −25%
% Reduction of circulating microfilariae, Day 21 [2]: −44%
minimal effective concentration [4]: 10 to 100 µM
Vd [3]: 3 L/kg
clearance [3]: 2 mL/min/kg
half-life [3]: 110 h
Cmax [3]: 152 ng/mL
F [3]: 12%
selectivity ratio (DiMF/DiL4) ([5]; ratio of DiMF MED to DiL4 MED): about 8.3

CC(C)C[C@H]1C(=O)O[C@H](Cc2ccc(Cn3nccc3C3CC3)cc2)C(=O)N(C)[C@@H](CC(C)C)C(=O)O[C@H](C)C(=O)N(C)[C@@H](CC(C)C)C(=O)O[C@H](Cc2ccc(Cn3nccc3C3CC3)cc2)C(=O)N(C)[C@@H](CC(C)C)C(=O)O[C@H](C)C(=O)N1C [Example 1b-108, (3S,6R,9S,12R,15S,18R,21S,24R)-6,18-bis(4-((5-cyclopropyl-1H-pyrazol-1-yl)methyl)benzyl)-3,9,15,21-tetraisobutyl-4,10,12,16,22,24-hexamethyl-1,7,13,19-tetraoxa-4,10,16,22-tetraazacyclotetracosan-2,5,8,11,14,17,20,23-octaone]
minimal effective concentration [1]: 0.001 to 0.01 µM
minimal effective concentration [4]: ≤ 1 µM
Vd [3]: 5.6 L/kg
clearance [3]: 6 mL/min/kg
half-life [3]: 51 h
Cmax [3]: 178 ng/mL
F [3]: 30%
minimal effective concentration [5]: 0.0001 to 0.001 µM

CC(C)C[C@H]1C(=O)O[C@H](Cc2ccc(N3CCOCC3)cc2)C(=O)N(C)[C@@H](CC(C)C)C(=O)O[C@H](C)C(=O)N(C)[C@@H](CC(C)C)C(=O)O[C@H](Cc2ccc(N3CCOCC3)cc2)C(=O)N(C)[C@@H](CC(C)C)C(=O)O[C@H](C)C(=O)N1C [emodepside, reference compound]
minimal effective concentration [1]: 0.03 µM
adverse effects / clinical observations [6]: all treated dogs exhibited adverse effects consistent with dead or dying circulating microfilariae
Mean MF/mL, Day 0 Pre-dose ([2]; heartworm positive dogs): 61,000 MF/mL
Mean MF/mL, Day 0 Post-dose, 2 hours ([2]; heartworm positive dogs): 8,300 MF/mL
Mean MF/mL, Day 1 ([2]; heartworm positive dogs): 4,500 MF/mL
Mean MF/mL, Day 7 ([2]; heartworm positive dogs): 8,800 MF/mL
Mean MF/mL, Day 14 ([2]; heartworm positive dogs): 13,000 MF/mL
Mean MF/mL, Day 21 ([2]; heartworm positive dogs): 13,000 MF/mL
average MF counts at 2 hours post-dose ([2]; heartworm positive dogs, 1 mg/kg (po), 61,000 MF/mL of blood pre-dose): 8,300 MF/mL of blood
decrease of average MF counts at 2 hours post-dose ([2]; heartworm positive dogs, 1 mg/kg (po), versus pre-dose): ~86%
% Reduction of circulating microfilariae, Day 0 Post-dose, 2 hours [2]: 86%
% Reduction of circulating microfilariae, Day 1 [2]: 93%
% Reduction of circulating microfilariae, Day 7 [2]: 86%
% Reduction of circulating microfilariae, Day 14 [2]: 79%
% Reduction of circulating microfilariae, Day 21 [2]: 79%
minimal effective concentration [5]: 0.03 µM
